Measurements published in PubChem BioAssay (NCI).
Several values for one entry are separate records, joined by “and”; a condition that tells them apart may be missing. Identical values can stand only once.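 Growth conditions: 96-well plates. Treatment: test compound, 48 hours, 5 concentrations. Analysis: linear interpolation between bracketing concentrations; unreached endpoints set to highest concentration. GI50 = concentration required for 50% inhibition of growth. TGI: total growth inhibition.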

Assays:
Experiment in all cases: inhibition of tumour cell growth, NCI panel, 48 h
SK-MEL-28 melanoma = tested on: SK-MEL-28 melanoma
LOX IMVI melanoma = tested on: LOX IMVI melanoma
MALME-3M melanoma = tested on: MALME-3M melanoma
UO-31 renal = tested on: UO-31 renal
K-562 leukemia = tested on: K-562 leukemia
OVCAR-4 ovarian = tested on: OVCAR-4 ovarian
RPMI-8226 leukemia = tested on: RPMI-8226 leukemia
NCI-H226 lung = tested on: NCI-H226 lung
SF-268 CNS = tested on: SF-268 CNS
SNB-75 CNS = tested on: SNB-75 CNS

SMILES | GI50 (SK-MEL-28 melanoma) [µM] | TGI (SK-MEL-28 melanoma) [µM] | GI50 (LOX IMVI melanoma) | TGI (LOX IMVI melanoma) | GI50 (MALME-3M melanoma) [µM] | TGI (MALME-3M melanoma) | GI50 (UO-31 renal) [µM] | TGI (UO-31 renal) [µM] | GI50 (K-562 leukemia) [µM] | TGI (K-562 leukemia) [µM] | GI50 (OVCAR-4 ovarian) [µM] | TGI (OVCAR-4 ovarian) [µM] | GI50 (RPMI-8226 leukemia) [µM] | TGI (RPMI-8226 leukemia) [µM] | GI50 (NCI-H226 lung) [µM] | TGI (NCI-H226 lung) [µM] | GI50 (SF-268 CNS) [µM] | TGI (SF-268 CNS) [µM] | GI50 (SNB-75 CNS) | TGI (SNB-75 CNS)
O=C(Nc1ccc(OCc2nnc(-c3ccccc3)o2)c(F)c1)Nc1ccc(Cl)c(C(F)(F)F)c1 | 3.08 | > 100 | 2.83 µM | 12.9 µM | 1.78 | 4.98 µM | 1.49 | 2.93 | 2.07 | 8.79 | 2.49 | 8.52 | 1.11 | 3.57 | 3.65 | 28.3 | 3.52 | 19.2 | 1.64 µM | 5.08 µM
COc1ccc2cc(Cn3cc[n+](Cc4ccc5ccccc5c4)c3)ccc2c1 | 2 | 5.05 | 1.5 µM | 2.86 µM | 1.53 | 4.03 µM | 12.7 | 32.1 | 3.51 | 16.3 | 2.27 | 8.06 | 1.33 | 3.65 | 2.97 | 16.4 | 2.53 | 11.8 | 1.39 µM | 4.19 µM
CCCC(=O)Nc1ccc2c(c1)CN1C(=O)c3ccccc3C1=N2 |  | > 100 |  | > 100 µM |  | > 100 µM |  | > 100 |  |  |  | > 100 |  | > 100 |  | > 100 |  | > 100 |  | > 100 µM
COc1ccc(NC(=O)CC(=O)N2N=C(N(CCC#N)c3cccc(C)c3)CC2c2ccccc2)cc1 (configuration not stated) |  | > 100 |  |  |  | > 100 µM |  | > 100 |  | > 100 |  | > 100 |  | > 100 |  | > 100 |  | > 100 |  | > 100 µM
O=C1OC(c2ccccc2)=N/C1=C\c1cc(Cl)ccc1Cl |  | > 100 |  |  |  | > 100 µM |  | > 100 |  | > 100 |  | > 100 |  | > 100 |  |  |  | > 100 |  | 36.3 µM
Oc1ccc(-c2cn3cc(Cl)sc3n2)cc1 |  |  | 32.3 µM | 86.2 µM |  |  | > 100 | > 100 | 36.7 | > 100 |  |  | 16.5 | 40.7 | 5.49 | 48.5 | 12.2 | 80.2 |  | 
N#C/C(=C1C=C/C(=N\O)C(Cl)=C\1)c1ccccc1 | 6.77 | 21.8 |  |  | 7.35 | 29.9 µM | 1.74 | 17.1 | 2.27 | 13.5 | 12.7 | 51.5 | 0.451 | 4.41 | 3.13 | 12.4 | 2.19 | 14.3 | 3.5 µM | 20.5 µM
O=C1CC[C@H](c2ccc(O)c3c2C(=O)[C@@H]2O[C@@H]2C3=O)c2cccc(O)c21 | 1.83 | 3.62 | 0.976 µM | 3.86 µM | 2.31 | 6.37 µM | 1.57 | 3.16 | 2.36 | 10.4 | 3.51 | 13.9 |  |  | 3.21 | 12.4 | 2.32 | 6.17 | 26.7 µM | > 100 µM
Cc1ccc(C(=O)C#Cc2c[nH]c(=O)[nH]c2=O)cc1 |  | 30.8 |  | 15 µM |  | 18.7 µM |  | 37.7 |  | 34.2 |  | 47.3 |  |  |  | 34.5 |  | 26.2 |  | 34.4 µM
CCCCCCCCCCCCCCCCCC(=O)OCC(COC1OC(CS(=O)(=O)O)C(O)C(O)C1O)OC(=O)CCCCCCCCCCCCCCCCC (configuration not stated) |  | > 100 |  | > 100 µM |  | > 100 µM |  |  |  | > 100 |  | > 100 |  | > 100 |  | > 100 |  | > 100 |  | > 100 µM
COC1=C2C[C@@H](C)C[C@@H](OC)[C@@H](O)[C@H](C)/C=C(\C)[C@@H](OC(N)=O)[C@H](OC)/C=C\C=C(/C)C(=O)NC(=CC1=O)C2=O |  |  | 0.0208 µM and 0.051 µM and 0.0459 µM | 1.48 µM and 1.38 µM |  | 8.13 µM and 3.44 µM and 1.13 µM |  |  |  |  |  |  |  |  |  |  |  |  | 7.93 µM and 4.68 µM and 1.12 µM | 18.6 µM and 19.2 µM and 3.97 µM
N#CCCSC(=S)C1CCCC1=N (configuration not stated) |  | > 100 |  |  |  | > 100 µM |  | > 100 |  | > 100 |  | > 100 |  | > 100 |  | > 100 |  | > 100 |  | 94.4 µM
COC(=O)CS(=O)c1ccccc1 (configuration not stated) |  | > 100 |  | 44.4 µM |  | > 100 µM |  | 22.1 |  | > 100 |  | > 100 |  | 52.2 |  |  |  | 91.6 |  | 
Cc1ccc(NC2=C(Cl)C(=O)N(Cc3ccccc3)C2=O)cc1Cl | 12.9 | 29.3 | 2.53 µM | 14.2 µM | 0.598 | 9.14 µM | 3.33 | 15.9 | 3.69 | 25.8 | 10.7 | 26.6 | 0.454 | 3.36 | 0.144 | 3.83 | 3.28 | 15.1 |  | 
COc1ccc(-c2nc(N3CCOCC3)c3sc(CN(C)c4ncc(C(=O)NO)cn4)cc3n2)cn1 | 0.0129 | 0.136 |  |  | < 0.01 | 0.0352 µM | < 0.01 | 0.0705 | < 0.01 | > 100 | 0.0147 | 1.82 | < 0.01 |  | 0.0112 | 1.13 | 0.0178 | 0.204 | < 0.01 µM | 0.152 µM
COc1ccc(CCN2CCC(Nc3nc4ccccc4n3Cc3ccc(F)cc3)CC2)cc1 | 1.61 | 3.03 | 1.38 µM | 2.79 µM | 1.72 | 3.4 µM | 1.29 | 2.62 |  |  | 1.25 | 2.57 | 1.78 | 4.73 | 1.55 | 3.09 | 1.56 | 2.95 | 1.24 µM | 2.54 µM
